Measurements reported in US10889573B2, “Anthelmintic quinoline-3-carboxamide derivatives” (Bayer Animal Health GMBH, priority 2016, dated 2021).

Key:
[1] = system: Dirofilaria immitis third-stage larvae; assay: In vitro assay 4: Dirofilaria immitis (DIROIM L4), motility; details: 72 h, read-out: EC50 (reduction of motility)
[2] = system: Litomosoides sigmodontis third-stage larvae; details: 72 h, read-out: EC50 (reduction of motility)
Experimental: In Vitro Assay 5: Litomosoides sigmodontis (LTMOSI L3)
10 Litomosoides sigmodontis third-stage larvae, which were freshly isolated from the pleural cavity of an infected rodent, were added to wells of a microtitre plate containing a nutrient medium and the test compound in DMSO. Compounds were tested in concentration-response assay in duplicate. Larvae exposed to DMSO and no test compounds were used as negative controls. Larvae were evaluated after 72 h of incubation with the compound. Efficacy was determined as the reduction of motility in comparison to the negative control. Based on the evaluation of a wide concentration range, concentration-response curves as well as EC50-values were calculated.

C. elegans Slo-1a = C. elegans Slo-1a (Caenorhabditis elegans, UniProt Q95V25); details: pE50 (negative decadic logarithm of EC50), CHO cells expressing C. elegans Slo-1a, voltage sensitive dye
C. elegans Slo-1a, sequence (Q95V25 whole entry): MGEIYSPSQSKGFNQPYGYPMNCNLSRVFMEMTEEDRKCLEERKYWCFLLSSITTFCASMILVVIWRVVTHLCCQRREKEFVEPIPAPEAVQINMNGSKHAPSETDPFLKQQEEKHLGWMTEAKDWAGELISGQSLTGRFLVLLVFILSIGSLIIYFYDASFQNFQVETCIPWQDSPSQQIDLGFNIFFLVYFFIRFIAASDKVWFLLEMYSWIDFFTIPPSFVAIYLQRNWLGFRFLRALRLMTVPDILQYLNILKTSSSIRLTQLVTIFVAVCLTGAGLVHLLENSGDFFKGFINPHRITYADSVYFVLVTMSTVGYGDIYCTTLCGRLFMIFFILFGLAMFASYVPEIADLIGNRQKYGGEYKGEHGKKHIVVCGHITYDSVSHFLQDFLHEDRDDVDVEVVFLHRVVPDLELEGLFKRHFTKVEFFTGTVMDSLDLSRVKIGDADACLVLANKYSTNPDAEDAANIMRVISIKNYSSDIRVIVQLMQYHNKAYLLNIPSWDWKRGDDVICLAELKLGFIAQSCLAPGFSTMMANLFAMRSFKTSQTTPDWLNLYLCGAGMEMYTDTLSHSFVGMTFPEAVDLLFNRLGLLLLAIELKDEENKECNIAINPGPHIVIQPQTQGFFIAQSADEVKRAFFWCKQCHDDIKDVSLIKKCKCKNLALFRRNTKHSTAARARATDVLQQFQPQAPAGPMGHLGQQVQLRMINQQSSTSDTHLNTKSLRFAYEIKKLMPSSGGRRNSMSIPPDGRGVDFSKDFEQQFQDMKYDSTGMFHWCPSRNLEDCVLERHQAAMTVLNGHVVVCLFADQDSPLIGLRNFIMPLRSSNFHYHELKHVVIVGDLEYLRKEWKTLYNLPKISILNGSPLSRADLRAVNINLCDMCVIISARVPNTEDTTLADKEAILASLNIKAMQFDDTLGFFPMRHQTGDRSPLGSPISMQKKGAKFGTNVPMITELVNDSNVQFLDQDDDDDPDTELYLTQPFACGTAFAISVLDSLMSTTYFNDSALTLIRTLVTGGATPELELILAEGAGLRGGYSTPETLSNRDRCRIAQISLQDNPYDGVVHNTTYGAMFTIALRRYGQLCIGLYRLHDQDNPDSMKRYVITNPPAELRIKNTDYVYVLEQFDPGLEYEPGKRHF

[3] = system: Dirofilaria immitis microfilariae; assay: In vitro assay 3: Dirofilaria immitis microfilariae (DIROIM L1), motility; details: 72 h, read-out: EC50 (reduction of motility), 72 h incubation
[4] = system: Nippostrongylus brasiliensis; assay: In vitro assay 2: Nippostrongylus brasiliensis (NIPOBR), acetylcholine esterase readout; details: read-out: activity (reduction of AChE compared to negative control); for inhibition at 1 µg/mL: 1 μg/ml; for inhibition at 10 µg/mL: 10 μg/ml
Outline: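 Readout was acetylcholine esterase activity released into the medium, compared with negative control, after exposing adult worms to compounds at final 10 ppm (10 μg/ml) or 1 ppm (1 μg/ml). Worms were first washed in antibiotic/amphotericin B-containing saline; compounds were dissolved in DMSO.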

Haemonchus contortus = details: 120 h, read-out: activity (larval mortality)
Experimental: In Vitro Assay 7: Haemonchus contortus (HAEMCO L3)
Solvent: dimethyl sulfoxide
Approximately 40 larvae of the red stomach worm (Haemonchus contortus) are transferred into a test tube containing compound solution.
After 5 days the percentage of larval mortality is recorded. 100% efficacy means all larvae are killed, 0% efficacy means no larvae are killed.

Cooperia curticei = details: Cooperia curticei, 120 h, read-out: activity (larval mortality)
Experimental: In Vitro Assay 6: Cooperia curticei (COOPCU L3)
Solvent: dimethyl sulfoxide
Approximately 40 nematode larvae (Cooperia curticei) are transferred into a test tube containing the compound solution.
After 5 days percentage of larval mortality is recorded. 100% efficacy means all larvae are killed; 0% efficacy means no larvae are killed.

[5] = log P by HPLC on reversed phase columns (Method L0); details: for logP (Method L0)^[a]: HPLC on reversed phase columns
Experimental: Measurement of log P values was performed according to EEC directive 79/831 Annex V.A8 by HPLC (High Performance Liquid Chromatography) on reversed phase columns with the following methods: • ^[a] log P value is determined by measurement of LC-UV, in an acidic range, with 0.1% formic acid in water and acetonitrile as eluent (linear gradient from 10% acetonitrile to 95% acetonitrile). • ^[b] log P value is determined by measurement of LC-UV, in a neutral range, with 0.001 molar ammonium acetate solution in water and acetonitrile as eluent (linear gradient from 10% acetonitrile to 95% acetonitrile).
Calibration was done with straight-chain alkan-2-ones (with 3 to 16 carbon atoms) with known log P values (measurement of log P values using retention times with linear interpolation between successive alkanones).

Question: Which EC50 [1] does the source give for `O=C(N[C@H]1CCc2ccccc21)c1cnc2c(-c3cc(Cl)cc(Cl)c3)cccc2c1Cl` [Example 3, 4-chloro-8-(3,5-dichlorophenyl)-N-[(1S)-2,3-dihydro-1H-inden-1-yl]quinoline-3-carboxamide] here?
Answer: < 1 µg/mL

Question: What about the EC50 [2] of the same molecule?
Answer: < 1 µg/mL

Question: What about the EC50 (C. elegans Slo-1a) of the same molecule?
Answer: 3.16 to 31.6 nM

Question: What about the EC50 [3] of the same molecule?
Answer: < 1 µg/mL

Question: What does the source list for `Cc1cc(-c2cc(Cl)cc(Cl)c2)c2ncc(C(=O)N[C@H]3CCOc4ccccc43)c(N(C)C)c2c1` [Example 12]?
Answer: inhibition at 1 µg/mL [4]: > 80%; inhibition at 10 µg/mL [4]: > 80%; mortality at 20 ppm (Haemonchus contortus): 80%; EC50 [1]: < 0.1 µg/mL; EC50 [2]: < 0.1 µg/mL; EC50 (C. elegans Slo-1a): < 3.16 nM; EC50 [3]: < 0.1 µg/mL

Question: Which inhibition at 1 µg/mL [4] does the source give for `O=C(N[C@H]1CCOc2ccccc21)c1cnc2c(-c3cc(Cl)cc(Cl)c3)cccc2c1N1CCOCC1` [Example 17] here?
Answer: > 80%

Question: And the inhibition at 10 µg/mL [4]?
Answer: > 80%

Question: And the mortality at 4 ppm (Haemonchus contortus)?
Answer: 100%

Question: And the mortality at 20 ppm (Haemonchus contortus)?
Answer: 100%

Question: And the EC50 [1]?
Answer: < 0.1 µg/mL

Question: And the EC50 [2]?
Answer: < 0.1 µg/mL

Question: What about the mortality at 4 ppm (Cooperia curticei) of the same molecule?
Answer: 100%

Question: And the mortality at 20 ppm (Cooperia curticei)?
Answer: 100%

Question: What about the EC50 (C. elegans Slo-1a) of the same molecule?
Answer: < 3.16 nM

Question: And the EC50 [3]?
Answer: < 0.1 µg/mL

Question: Which inhibition at 1 µg/mL [4] does the source give for `CNc1c(C(=O)N[C@H]2CCOc3ccccc32)cnc2c(-c3cc(Cl)cc(Cl)c3)cccc12` [Example 24] here?
Answer: > 80%

Question: What about the inhibition at 10 µg/mL [4] of the same molecule?
Answer: > 80%

Question: And the mortality at 4 ppm (Haemonchus contortus)?
Answer: 100%

Question: What about the mortality at 20 ppm (Haemonchus contortus) of the same molecule?
Answer: 100%

Question: And the EC50 [1]?
Answer: < 0.1 µg/mL

Question: And the EC50 [2]?
Answer: < 0.1 µg/mL

Question: And the mortality at 4 ppm (Cooperia curticei)?
Answer: 100%

Question: And the mortality at 20 ppm (Cooperia curticei)?
Answer: 100%

Question: What about the EC50 (C. elegans Slo-1a) of the same molecule?
Answer: < 3.16 nM

Question: And the EC50 [3]?
Answer: < 0.1 µg/mL

Question: With `CN(C)c1c(C(=O)N[C@H]2CCOc3ccccc32)cnc2c(-c3cccc4[nH]ccc34)cccc12` [Example 73] as the molecule, how does the inhibition at 1 µg/mL [4] read?
Answer: > 80%

Question: And the inhibition at 10 µg/mL [4]?
Answer: > 80%

Question: And the EC50 [1]?
Answer: < 0.1 µg/mL

Question: What about the EC50 [2] of the same molecule?
Answer: < 1 µg/mL

Question: What about the EC50 (C. elegans Slo-1a) of the same molecule?
Answer: 3.16 to 31.6 nM

Question: And the EC50 [3]?
Answer: < 0.1 µg/mL

Question: Which results are given for `CCOc1c(C(=O)N[C@H]2CCc3ccccc32)cnc2c(-c3cc(Cl)cc(Cl)c3)cccc12` [Example 134, 8-(3,5-dichlorophenyl)-N-[(1S)-2,3-dihydro-1H-inden-1-yl]-4-ethoxyquinoline-3-carboxamide]?
Answer: inhibition at 1 µg/mL [4]: > 80%; inhibition at 10 µg/mL [4]: > 80%; mortality at 4 ppm (Haemonchus contortus): 100%; mortality at 20 ppm (Haemonchus contortus): 100%; EC50 [1]: < 0.1 µg/mL; EC50 [2]: < 0.1 µg/mL; mortality at 4 ppm (Cooperia curticei): 100%; mortality at 20 ppm (Cooperia curticei): 100%; EC50 [3]: < 0.1 µg/mL

Question: What does the source list for `O=C(N[C@H]1CCOc2ccccc21)c1cnc2c(-c3cc(Cl)cc(Cl)c3)cccc2c1N1CCC1` [Example 135, 4-(azetidin-1-yl)-8-(3,5-dichlorophenyl)-N-[(4S)-3,4-dihydro-2H-chromen-4-yl]quinoline-3-carboxamide]?
Answer: inhibition at 1 µg/mL [4]: > 80%; inhibition at 10 µg/mL [4]: > 80%; mortality at 4 ppm (Haemonchus contortus): 90%; mortality at 20 ppm (Haemonchus contortus): 100%; mortality at 20 ppm (Cooperia curticei): 80%; chromatographic logP [5]: 1.9; EC50 (C. elegans Slo-1a): < 3.16 nM; EC50 [3]: < 1 µg/mL

Question: With `CCOC(=O)CN(C)c1c(C(=O)N[C@H]2CCOc3ccccc32)cnc2c(-c3cc(Cl)cc(Cl)c3)cccc12` [Example 137, ethyl N-{8-(3,5-dichlorophenyl)-3-[(4S)-3,4-dihydro-2H-chromen-4-ylcarbamoyl]quinolin-4-yl}-N-methylglycinate] as the molecule, how does the inhibition at 1 µg/mL [4] read?
Answer: > 80%

Question: What about the inhibition at 10 µg/mL [4] of the same molecule?
Answer: > 80%

Question: And the mortality at 20 ppm (Haemonchus contortus)?
Answer: 80%

Question: And the chromatographic logP [5]?
Answer: 4.8

Question: And the EC50 (C. elegans Slo-1a)?
Answer: < 3.16 nM

Question: And the EC50 [3]?
Answer: < 1 µg/mL

Question: Which results are given for `CN(C)c1c(C(=O)N[C@H]2CCOc3ccccc32)cnc2c(-c3cccc(Cl)c3)c(F)ccc12` [Example 141, 8-(3-chlorophenyl)-N-[(4S)-3,4-dihydro-2H-chromen-4-yl]-4-(dimethyl-amino)-7-fluoroquinoline-3-carboxamide]?
Answer: inhibition at 10 µg/mL [4]: > 80%; EC50 [1]: < 0.1 µg/mL; EC50 [2]: < 0.1 µg/mL; EC50 (C. elegans Slo-1a): < 3.16 nM; EC50 [3]: < 0.1 µg/mL

Question: With `CN(CC(=O)O)c1c(C(=O)N[C@H]2CCOc3ccccc32)cnc2c(-c3cc(Cl)cc(Cl)c3)cccc12` [Example 150, N-{8-(3,5-dichlorophenyl)-3-[(4S)-3,4-dihydro-2H-chromen-4-ylcarbamoyl]quinolin-4-yl}-N-methylglycine] as the molecule, how does the inhibition at 1 µg/mL [4] read?
Answer: > 80%

Question: And the mortality at 4 ppm (Haemonchus contortus)?
Answer: 80%

Question: And the mortality at 20 ppm (Haemonchus contortus)?
Answer: 90%

Question: And the EC50 [1]?
Answer: < 1 µg/mL

Question: And the mortality at 20 ppm (Cooperia curticei)?
Answer: 100%

Question: What about the chromatographic logP [5] of the same molecule?
Answer: 3.1

Question: What about the EC50 (C. elegans Slo-1a) of the same molecule?
Answer: 3.16 to 31.6 nM

Question: And the EC50 [3]?
Answer: < 0.1 µg/mL

Question: For `O=C(N[C@H]1CCOc2ccccc21)c1cnc2c(-c3cc(Cl)cc(Cl)c3)cccc2c1-n1ccnn1` [Example 188, 8-(3,5-dichlorophenyl)-N-[(4S)-3,4-dihydro-2H-chromen-4-yl]-4-(1H-1,2,3-triazol-1-yl)quinoline-3-carboxamide], which chromatographic logP [5] is on record?
Answer: 4.5

Question: What about the EC50 (C. elegans Slo-1a) of the same molecule?
Answer: 3.16 to 31.6 nM

Question: What about the EC50 [3] of the same molecule?
Answer: < 0.1 µg/mL

Question: For `O=C(N[C@H]1CCOc2ccccc21)c1cnc2c(-c3cc(Cl)cc(Cl)c3)cccc2c1-n1nccn1` [Example 189, 8-(3,5-dichlorophenyl)-N-[(4S)-3,4-dihydro-2H-chromen-4-yl]-4-(2H-1,2,3-triazol-2-yl)quinoline-3-carboxamide], which inhibition at 1 µg/mL [4] is on record?
Answer: > 80%

Question: And the chromatographic logP [5]?
Answer: 5

Question: And the EC50 (C. elegans Slo-1a)?
Answer: < 3.16 nM

Question: What about the EC50 [3] of the same molecule?
Answer: < 0.1 µg/mL

Question: With `CN(c1c(C(=O)N[C@H]2CCOc3ccccc32)cnc2c(-c3cccc(Cl)c3Cl)cccc12)C1COC1` [Example 331, 8-(2,3-dichlorophenyl)-N-[(4S)-3,4-dihydro-2H-chromen-4-yl]-4-[methyl(oxetan-3-yl)amino]-quinoline-3-carboxamide] as the molecule, how does the inhibition at 1 µg/mL [4] read?
Answer: > 80%

Question: And the mortality at 20 ppm (Haemonchus contortus)?
Answer: 100%

Question: And the EC50 [1]?
Answer: < 0.1 µg/mL

Question: And the mortality at 20 ppm (Cooperia curticei)?
Answer: 90%

Question: What about the chromatographic logP [5] of the same molecule?
Answer: 3.14

Question: What about the EC50 (C. elegans Slo-1a) of the same molecule?
Answer: < 3.16 nM

Question: And the EC50 [3]?
Answer: < 0.1 µg/mL

Question: Which EC50 [1] does the source give for `CCc1cc(Cl)cc(-c2cccc3c(CC)c(C(=O)N[C@H]4CCOc5ccccc54)cnc23)c1` [Example 351, 8-(3-chloro-5-ethylphenyl)-N-[(4S)-3,4-dihydro-2H-chromen-4-yl]-4-ethylquinoline-3-carboxamide] here?
Answer: < 0.1 µg/mL

Question: And the chromatographic logP [5]?
Answer: 5.1

Question: What about the EC50 (C. elegans Slo-1a) of the same molecule?
Answer: < 3.16 nM

Question: What about the EC50 [3] of the same molecule?
Answer: < 0.1 µg/mL

Question: Which “logP (Method L0)^[a]” value [5] does the source give for `CC[S+]([O-])c1c(C(=O)N[C@H]2CCOc3ccccc32)cnc2c(-c3cccc(Cl)c3Cl)cccc12` (some centres unmarked) [Example 368] here?
Answer: 3.76

Question: With `CC[S+]([O-])c1c(C(=O)N[C@H]2CCOc3ccccc32)cnc2c(-c3cc(Cl)cc(Cl)c3)cccc12` (some centres unmarked) [Example 370] as the molecule, how does the “logP (Method L0)^[a]” value [5] read?
Answer: 4.44

Question: With `CCS(=O)(=O)c1c(C(=O)N[C@H]2CCOc3ccccc32)cnc2c(-c3cc(Cl)cc(Cl)c3)cccc12` [Example 371] as the molecule, how does the “logP (Method L0)^[a]” value [5] read?
Answer: 4.54

Question: What does the source list for `COc1c(C(=O)N[C@H]2CCOc3ccccc32)cnc2c(-c3cc(Cl)cc(Cl)c3)cccc12` [Example 373, 8-(3,5-dichlorophenyl)-N-[(4S)-3,4-dihydro-2H-chromen-4-yl]-4-methoxyquinoline-3-carboxamide]?
Answer: inhibition at 1 µg/mL [4]: > 80%; inhibition at 10 µg/mL [4]: > 80%; mortality at 4 ppm (Haemonchus contortus): 100%; mortality at 20 ppm (Haemonchus contortus): 100%; EC50 [1]: < 1 µg/mL; EC50 [2]: < 1 µg/mL; mortality at 4 ppm (Cooperia curticei): 100%; mortality at 20 ppm (Cooperia curticei): 100%; EC50 (C. elegans Slo-1a): < 3.16 nM

Question: For `Cc1nc2c(-c3cccc(Cl)c3Cl)cccc2c(N(C)C)c1C(=O)N[C@H]1CCOc2ccccc21` [Example 523], which “logP (Method L0)^[a]” value [5] is on record?
Answer: 2.11

Question: With `O=C(N[C@H]1CCOc2ccccc21)c1cnc2c(-c3cc(F)cc(F)c3F)c(F)ccc2c1N1CCOCC1` [Example 540] as the molecule, how does the “logP (Method L0)^[a]” value [5] read?
Answer: 3.72

Question: Which “logP (Method L0)^[a]” value [5] does the source give for `CNc1c(C(=O)N[C@H]2CCOc3ccccc32)cnc2c(-c3cc(F)c(OC(F)F)c(F)c3)c(F)ccc12` [Example 547] here?
Answer: 1.81

Question: With `O=C(N[C@H]1CCOc2ccccc21)c1cnc2c(-c3cc(F)cc(F)c3F)c(Cl)ccc2c1N1CCOCC1` [Example 576] as the molecule, how does the “logP (Method L0)^[a]” value [5] read?
Answer: 3.90
